# Experimental data reported in article PMC11984586, “A novel spider toxin as a selective antagonist of the Kv1 subfamily of voltage-gated potassium channels through gating modulation” (The Journal of Biological Chemistry, 2025).
# Bridge positions count the residues as written; N and C are the ends. Peptide text beside a SMILES is read from it.
# Tests used:
# Type in all cases: cell-based
# Kv1.3/L343A = biological target: T1, Kv1.3/L343A (Homo sapiens, UniProt P22001, L343A); assay: Whole-cell patch clamp, Kv1.3 alanine mutant
# T1 construct: expressed in transfected cells; host or cells: CHO-K1
# Protocol: (§1) MrVIII inhibits Kv1 channels by stabilizing the voltage sensor in its resting state. […] To investigate this hypothesis, we constructed a series of alanine mutants in the S3-S4 region of the Kv1.3 channel, covering residues I336 to L363, to identify critical interactions between the peptide and the channel (Fig. 6A). […] For the remaining mutants that retained functional current expression, we evaluated the inhibitory activity of 100 nM MrVIII. […] The lack of conserved multiple interaction sites may explain the absence of activity on other Kv subfamily channels (Fig. S3). In summary, this study identified key amino acid residues in the S3-S4 region of the Kv1.3 channel that interact with MrVIII, providing a foundation for further exploration into the peptide's mechanism of action.
# (§2) The cDNA of hKv1.1, hKv1.2, hKv1.3, rKv1.4, hKv1.5, mKv1.6, and hKv1.7 were subcloned into mammalian expression vectors pcDNA3.1 or pCMV-blank vectors, as well as other plasmids described previously ([35]). Channel mutants were generated by site-directed mutations. Briefly, the parental channel plasmid was amplified using a pair of oppositely directed primers harboring the designed mutation site, with KOD Fx (TOYOBO Co, Ltd). The resulting PCR mix was treated with FastDigest DpnI (Thermo Fisher Scientific) to remove the methylated template. Ten microliters of the digested product was then used to transform 100 μl E. coli DH5α competent cells. Transformants were randomly picked and sequenced to confirm the presence of the intended mutation.
# (§3) CHO-K1 cells were selected for expressing Kv channels due to their lack of endogenous Kv channels, while HEK293 or ND7/23 cells were used for Nav and Cav channel expression. CHO-K1 cells were cultured in a Dulbecco's modified Eagle's medium/Ham's F-12 nutrient mixture (DMEM-F12) medium, and HEK293T and ND7/23 cells in DMEM medium, all supplemented with 10% fetal bovine serum and 1% penicillin-streptomycin (all from Gibco, Thermo Fisher Scientific, Inc) under standard conditions (37 °C, 5% CO2, and saturated humidity). These cell lines were purchased from Stem Cell Bank, Chinese Academy of Sciences. Channel plasmids were cotransfected with pEGFP-N1 (encoding GFP) into the respective cells using lipofectamine 2000, following the manufacturer's instructions (Invitrogen, Thermo Fisher Scientific, Inc.). Nav1.9-GFP plasmid was transfected into ND7/23 using the X-tremeGENE HP DNA Transfection Reagent (Roche). After 4 to 6 h transfection, cells were seeded onto poly-lysine–coated coverslips, and 24 to 36 h later, transfected cells were ready for patch-clamp analysis.
# (§4) Patch clamp experiments were conducted using an electrophysiology platform comprising a MultiClamp 700B amplifier and an Axon Digidata 1550 AD/DA convertor (Axon Instruments). Data acquisition was performed with pClamp 10.5 software (Axon Instruments). All experiments were performed at room temperature.
# (§5) For Kv current recordings, the bath solution contained (in mM) the following: 140 NaCl, 5 KCl, 1 MgCl2, 2 CaCl2, 10 glucose, and 10 Hepes (pH 7.3, adjusted with NaOH), and the pipette solution contained (in mM) the following: 140 KCl, 2.5 MgCl2, 11 EGTA, and 10 Hepes (pH 7.3, adjusted with KOH). Series resistance was maintained below 10 MΩ and compensated to 80%. Concentration–response curves were fitted by the Hill equation to determine the toxin's potency. Whole cell conductance (G) at each depolarizing voltage (V) was determined using the equation: G = I/(V−Vrev), where I is the current amplitude, and Vrev is the reversal potential. The reversal potential for K^+ current was estimated to be −85.6 mV using the Nernst equation. G-V curves were obtained by plotting the normalized conductance as a function of V and fitted by the Boltzmann equation: y = 1/(1+ exp((Va-V)/k)), which Va is the midpoint voltage, V is the test potential, and k is the slope factor. The steady-state fast inactivation of Kv1.3 was measured using a two-pulses protocol. […]
# Kv1.3/L360A = biological target: T2, Kv1.3/L360A (Homo sapiens, UniProt P22001, L360A); assay: Whole-cell patch clamp, Kv1.3 alanine mutant
# T2 construct: expressed in transfected cells; host or cells: CHO-K1
# Protocol: as §1, §2, §3, §4, §5
# Kv1.3/I341A = biological target: T3, Kv1.3/I341A (Homo sapiens, UniProt P22001, I341A); assay: Whole-cell patch clamp, Kv1.3 alanine mutant
# T3 construct: expressed in transfected cells; host or cells: CHO-K1
# Protocol: as §1, §2, §3, §4, §5
# Kv1.3/L347A = biological target: T4, Kv1.3/L347A (Homo sapiens, UniProt P22001, L347A); assay: Whole-cell patch clamp, Kv1.3 alanine mutant
# T4 construct: expressed in transfected cells; host or cells: CHO-K1
# Protocol: as §1, §2, §3, §4, §5
# [1] = biological target: T5, Kv1.3/ET (Kv1.3/Q355 E_M358T) (Homo sapiens, UniProt P22001, M358T/Q355E); assay: Whole-cell patch clamp, Kv1.3 double mutant; details: +30 mV, mean ± SD, n = 3–5
# T5 construct: expressed in transfected cells; host or cells: CHO-K1
# Description: In contrast, differences at positions 347, 355, and 358 between Kv1.3 and Kv1.1 prompted further analysis. To explore whether these discrepancies influence peptide-mediated inhibition, we substituted these residues in Kv1.3 with their homologous counterparts in Kv1.1 and assessed the MrVIII's inhibitory efficacy on these single-point mutants. […] To further investigate this, we introduced double adjacent mutations around Q355 and M358 in Kv1.3 to explore potential synergistic effects on MrVIII's inhibitory activity. […]
# CHO-K1 cells were selected for expressing Kv channels due to their lack of endogenous Kv channels, while HEK293 or ND7/23 cells were used for Nav and Cav channel expression. […] After 4 to 6 h transfection, cells were seeded onto poly-lysine–coated coverslips, and 24 to 36 h later, transfected cells were ready for patch-clamp analysis. […]
# For Kv current recordings, the bath solution contained (in mM) the following: 140 NaCl, 5 KCl, 1 MgCl2, 2 CaCl2, 10 glucose, and 10 Hepes (pH 7.3, adjusted with NaOH), and the pipette solution contained (in mM) the following: 140 KCl, 2.5 MgCl2, 11 EGTA, and 10 Hepes (pH 7.3, adjusted with KOH). […] Whole cell conductance (G) at each depolarizing voltage (V) was determined using the equation: G = I/(V−Vrev), where I is the current amplitude, and Vrev is the reversal potential. […]
# [2] = 100 nM MrVIII on mutant compared with 10 nM on WT Kv1.3, +30 mV, n = 4–7
# T3 sequence (P22001 whole entry I341A): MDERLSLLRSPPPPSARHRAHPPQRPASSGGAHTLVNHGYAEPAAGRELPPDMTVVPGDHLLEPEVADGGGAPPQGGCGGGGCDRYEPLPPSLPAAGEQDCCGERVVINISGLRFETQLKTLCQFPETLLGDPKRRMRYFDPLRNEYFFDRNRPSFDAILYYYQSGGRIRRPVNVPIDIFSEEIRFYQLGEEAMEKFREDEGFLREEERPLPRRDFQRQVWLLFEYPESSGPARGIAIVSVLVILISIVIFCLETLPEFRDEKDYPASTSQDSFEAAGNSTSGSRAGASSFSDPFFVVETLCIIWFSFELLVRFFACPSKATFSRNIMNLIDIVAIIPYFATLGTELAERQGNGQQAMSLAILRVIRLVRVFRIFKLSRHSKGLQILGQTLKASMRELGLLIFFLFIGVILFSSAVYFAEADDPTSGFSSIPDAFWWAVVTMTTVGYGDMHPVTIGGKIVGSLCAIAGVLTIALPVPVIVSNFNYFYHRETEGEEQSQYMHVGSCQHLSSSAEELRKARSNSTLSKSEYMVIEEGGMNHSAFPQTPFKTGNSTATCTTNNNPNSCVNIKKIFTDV
# T2 sequence (P22001 whole entry L360A): as the sequence (P22001 whole entry I341A) above, with A341I, L360A counted along it
# T4 sequence (P22001 whole entry L347A): as the sequence (P22001 whole entry I341A) above, with A341I, L347A counted along it
# T5 sequence (P22001 whole entry Q355E/M358T): as the sequence (P22001 whole entry I341A) above, with A341I, Q355E, M358T counted along it
# T1 sequence (P22001 whole entry L343A): as the sequence (P22001 whole entry I341A) above, with A341I, L343A counted along it
compound,measurement,setting,value
"CC[C@H](C)[C@@H]1NC(=O)[C@H](Cc2ccc(O)cc2)NC(=O)[C@H](CCC(N)=O)NC(=O)[C@@H]2CCCN2C(=O)[C@@H]2CSSC[C@H](NC(=O)[C@H](C)NC(=O)[C@H](CO)NC(=O)[C@H](CCC(=O)O)NC(=O)[C@H](CCC(=O)O)NC(=O)[C@@H](N)[C@@H](C)O)C(=O)NCC(=O)NCC(=O)N[C@@H](Cc3ccccc3)C(=O)N[C@@H](CC(N)=O)C(=O)N[C@@H](C)C(=O)N[C@@H](CCCNC(=N)N)C(=O)N[C@H]3CSSC[C@H](NC1=O)C(=O)N[C@@H](CCCCN)C(=O)NCC(=O)N[C@@H](Cc1c[nH]c4ccccc14)C(=O)N[C@@H](CCCNC(=N)N)C(=O)N[C@@H]([C@@H](C)O)C(=O)N[C@@H](CCCCN)C(=O)N[C@@H](CCCNC(=N)N)C(=O)N[C@H](C(=O)N[C@@H](CC(C)C)C(=O)N[C@@H](CC(N)=O)C(=O)N1CCC[C@H]1C(=O)O)CSSC[C@H](NC(=O)[C@H](CCCCN)NC(=O)[C@H](Cc1c[nH]cn1)NC(=O)[C@H](CC(C)C)NC(=O)[C@@H]1CCCN1C3=O)C(=O)N2 [MrVIII] (H-TEESACGGFNARCPLHKCCPQYICKGWRTKRCLNP-OH; disulfide 6-19, 13-24, 18-32; N-terminus and C-terminus assumed)","decrease of inhibitory potency vs WT Kv1.3, L343A",Kv1.3/L343A; [2],more than 10 fold
same,IC50,"Kv1.3/L343A; +30 mV, 500 ms, mean ± SD, n = 4–6, SD, read-out: IC50, Kv1.3/L343A current",135 ± 34 nM
same,"decrease of inhibitory potency vs WT Kv1.3, L360A",Kv1.3/L360A; [2],more than 10 fold
same,IC50,"Kv1.3/L360A; +30 mV, 500 ms, mean ± SD, n = 4–6, SD, read-out: IC50, Kv1.3/L360A current",148 ± 60.4 nM
same,"decrease of inhibitory potency vs WT Kv1.3, I341A",Kv1.3/I341A; [2],more than 10 fold
same,IC50,"Kv1.3/I341A; +30 mV, 500 ms, mean ± SD, n = 4–6, SD, read-out: IC50, Kv1.3/I341A current",41 ± 26.3 nM
same,"decrease of inhibitory potency vs WT Kv1.3, L347A",Kv1.3/L347A; [2],more than 10 fold
same,IC50,"Kv1.3/L347A; +30 mV, 500 ms, mean ± SD, n = 4–6, SD, read-out: IC50, Kv1.3/L347A current",85.7 ± 41.3 nM
same,IC50,[1]; current at 50 ms,122 ± 24.5 nM
same,"inhi%(495 ms), Kv1.3/ET current",[1]; current at 495 ms,−35.4 ± 20.7%
